Laboratory results from ChEMBL document CHEMBL5257085, “Siderophores: Chemical tools for precise antibiotic delivery” (Bioorg Med Chem Lett, 2023).
Values after ≈ are worked out from the molar mass of the structure shown. One block for each compound: values may come before it.

Legend:
Acinetobacter baumannii [1] = experiment: Potentiation of imipenem-induced antibacterial activity against OXA-23 producing Acinetobacter baumannii ATCC 17978 assessed as fold change in imipenem MIC; format: functional
Acinetobacter baumannii [2] = experiment: Potentiation of imipenem-induced antibacterial activity against OXA-235 producing Acinetobacter baumannii ATCC 17978 assessed as fold change in imipenem MIC; format: functional
Acinetobacter baumannii [3] = experiment: Potentiation of imipenem-induced antibacterial activity against OXA-58 producing Acinetobacter baumannii ATCC 17978 assessed as fold change in imipenem MIC; format: functional
Acinetobacter baumannii [4] = experiment: Potentiation of imipenem-induced antibacterial activity against OXA-143 producing Acinetobacter baumannii ATCC 17978 assessed as fold change in imipenem MIC; format: functional
Acinetobacter baumannii [5] = experiment: Potentiation of imipenem-induced antibacterial activity against OXA-24 producing Acinetobacter baumannii ATCC 17978 assessed as fold change in imipenem MIC; format: functional
Pseudomonas aeruginosa [6] = experiment: Antibacterial activity against Pseudomonas aeruginosa assessed as inhibition of bacterial growth incubated for 18 to 48 hrs by two-fold serial dilution method; format: functional; details: time 18-48 hrs
Escherichia coli [7] = experiment: Antibacterial activity against NDM-1 producing Escherichia coli assessed as inhibition of bacterial growth by CLSI protocol based broth microdilution method; format: functional
Klebsiella pneumoniae [8] = experiment: Antibacterial activity against KPC-2 producing Klebsiella pneumoniae assessed as inhibition of bacterial growth by CLSI protocol based broth microdilution method; format: functional
Pseudomonas aeruginosa [9] = experiment: Antibacterial activity against IMP-1 producing Pseudomonas aeruginosa assessed as inhibition of bacterial growth by CLSI protocol based broth microdilution method; format: functional
Pseudomonas aeruginosa [10] = experiment: Antibacterial activity against VIM-2 producing Pseudomonas aeruginosa assessed as inhibition of bacterial growth by CLSI protocol based broth microdilution method; format: functional
Acinetobacter baumannii [11] = experiment: Antibacterial activity against OXA-23 producing Acinetobacter baumannii assessed as inhibition of bacterial growth by CLSI protocol based broth microdilution method; format: functional
[12] = system: Stenotrophomonas maltophilia; experiment: Antibacterial activity against L1 producing Stenotrophomonas maltophilia assessed as inhibition of bacterial growth by CLSI protocol based broth microdilution method; format: functional
Klebsiella pneumoniae [13] = experiment: Antibacterial activity against KPC-3 producing Klebsiella pneumoniae assessed as inhibition of bacterial growth by CLSI protocol based broth microdilution method; format: functional
Klebsiella pneumoniae [14] = experiment: Antibacterial activity against NDM-1 producing Klebsiella pneumoniae assessed as inhibition of bacterial growth by CLSI protocol based broth microdilution method; format: functional
DNA gyrase = DNA gyrase (Escherichia coli, UniProt P0AES4+P0AES6); experiment: Inhibition of Escherichia coli DNA gyrase ATPase activity using pBR322 as substrate incubated for 10 mins in presence of NADH and ATP by supercoiling assay; format: protein-complex assay
Escherichia coli [15] = experiment: Antibacterial activity against Escherichia coli JW5503 harbouring tolC-knock out mutant assessed as inhibition of bacterial growth incubated for 24 hrs by CLSI protocol based broth microdilution method; format: functional

Compound: C[C@]1(COC(=O)Cc2ccc(O)c(O)c2)[C@H](C(=O)O)N2C(=O)/C(=C/c3ccccn3)[C@H]2S1(=O)=O
fold change (FC) (Acinetobacter baumannii [1]): 32
fold change (FC) (Acinetobacter baumannii [2]): 32
fold change (FC) (Acinetobacter baumannii [3]): 32
fold change (FC) (Acinetobacter baumannii [4]): 32
fold change (FC) (Acinetobacter baumannii [5]): 32

Compound: Cc1[nH]c(C(=O)N[C@H]2CCc3nc(NC(=O)CNC(=O)c4ccc(O)c(O)c4)sc3C2)c(Cl)c1Cl
IC50 (DNA gyrase): 58 nM
MIC (Escherichia coli [15]): 14 µg/mL (≈ 26 µM)

Continued, values first:

MIC (Pseudomonas aeruginosa [6]): 128 µM (≈ 92.9 µg/mL)
Compound: CC(=O)NC[C@H]1CN(c2ccc(N3CCN(C(=O)Cn4cc(COC(=O)NCCCCNC(=O)c5cccc(O)c5O)nn4)CC3)c(F)c2)C(=O)O1

MIC50 (Escherichia coli [7]): 0.12 µg/mL (≈ 0.16 µM)
MIC50 (Klebsiella pneumoniae [8]): 0.12 µg/mL (≈ 0.16 µM)
MIC50 (Pseudomonas aeruginosa [9]): 0.12 µg/mL (≈ 0.16 µM)
MIC50 (Pseudomonas aeruginosa [10]): 0.12 µg/mL (≈ 0.16 µM)
MIC50 (Acinetobacter baumannii [11]): 0.12 µg/mL (≈ 0.16 µM)
MIC50 [12]: 0.12 µg/mL (≈ 0.16 µM)
MIC50 (Klebsiella pneumoniae [13]): 0.12 µg/mL (≈ 0.16 µM)
MIC50 (Klebsiella pneumoniae [14]): 0.12 µg/mL (≈ 0.16 µM)
Compound: CC(C)(O/N=C(\C(=O)N[C@@H]1C(=O)N2C(C(=O)[O-])=C(C[N+]3(CCNC(=O)c4ccc(O)c(O)c4Cl)CCCC3)CS[C@H]12)c1csc(N)n1)C(=O)O [CEFIDEROCOL]

MIC (Pseudomonas aeruginosa [6]): > 1020 µM
Compound: CC(=O)NC[C@H]1CN(c2ccc(N3CCOCC3)c(F)c2)C(=O)O1 [LINEZOLID]
